Data set [1] is described as follows: Clearance in mouse at 2 mg/kg, iv. It is filed as ADME, organism-based. More on the design: dose 2 mg/kg, route intravenous. The settings on record: in vivo.
Data set [2] relates to Mus musculus. The data set is described as follows: Antiinflammatory activity in mouse assessed as inhibition of LPS-induced IL-6 production at 30 mg/kg, po administered 1 hr prior to LPS challenge measured after 1 hr. It is filed as functional.
For data set [3], the target named is Serine/threonine-protein kinase TBK1 (Homo sapiens) (UniProt Q9UHD2). Nature of the data set: Inhibition of TBK1 (unknown origin) at 30 uM.
Chain of Serine/threonine-protein kinase TBK1 (Homo sapiens) (Q9UHD2 whole entry): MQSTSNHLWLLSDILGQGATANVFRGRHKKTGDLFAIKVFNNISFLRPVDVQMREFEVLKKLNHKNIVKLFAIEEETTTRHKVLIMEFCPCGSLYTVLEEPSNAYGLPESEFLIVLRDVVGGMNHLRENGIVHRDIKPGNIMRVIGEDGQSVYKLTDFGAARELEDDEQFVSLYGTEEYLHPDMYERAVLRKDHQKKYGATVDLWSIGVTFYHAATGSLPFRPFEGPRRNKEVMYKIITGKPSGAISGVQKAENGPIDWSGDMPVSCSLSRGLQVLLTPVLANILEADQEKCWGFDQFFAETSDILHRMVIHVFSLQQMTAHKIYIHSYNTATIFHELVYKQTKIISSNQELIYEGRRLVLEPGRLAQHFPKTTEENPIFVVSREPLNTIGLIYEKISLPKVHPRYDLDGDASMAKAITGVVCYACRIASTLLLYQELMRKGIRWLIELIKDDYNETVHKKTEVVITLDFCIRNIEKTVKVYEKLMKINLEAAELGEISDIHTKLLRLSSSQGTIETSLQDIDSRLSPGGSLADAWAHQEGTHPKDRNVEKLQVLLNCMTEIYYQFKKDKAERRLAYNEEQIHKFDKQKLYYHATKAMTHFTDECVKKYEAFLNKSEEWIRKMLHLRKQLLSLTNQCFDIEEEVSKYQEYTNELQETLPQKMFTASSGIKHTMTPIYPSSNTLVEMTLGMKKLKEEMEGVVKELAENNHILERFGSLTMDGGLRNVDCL
Data set [4] concerns the target Mitogen-activated protein kinase 12 (Homo sapiens) (UniProt P53778). Nature of the data set: Inhibition of p38gamma (unknown origin) at 30 uM.
The subject of data set [5] is PBMC. Nature of the data set: Antiinflammatory activity in human PBMC assessed as inhibition of LPS-induced TNFalpha release incubated for 15 mins prior to LPS-challenge measured after 24 hrs by HTRF assay. It is filed as functional, cell-based. On the technique in general: In TR-FRET formats the signal depends on donor and acceptor labels being close together.
For data set [6], the system named is Mus musculus. Nature of the data set: Toxicity in mouse assessed as change in body weight at 30 mg/kg, po qd administered every other day for 20 days relative to untreated control. It is filed as organism-based. Further details: dose 30 mg/kg, route oral. The conditions noted are these: in vivo, 480 h.
Data set [7] in a line: Terminal half life in mouse at 2 mg/kg, iv. Further details: dose 2 mg/kg, route intravenous. It is filed as ADME, organism-based. The settings on record: in vivo, read-out: beta t1/2 (converted).
A short description of data set [8]: Terminal half life in mouse at 4 mg/kg, po. It is filed as ADME, organism-based. More on the design: dose 4 mg/kg, route oral. The conditions noted are these: in vivo, read-out: beta t1/2 (converted).
A short description of data set [9]: AUC (0 to 24 hrs) in mouse at 2 mg/kg, iv. The conditions noted are these: plasma. More on the design: time < 24 hr, dose 2 mg/kg, route intravenous. It is filed as ADME, organism-based.
Data set [10] can be described thus: Volume of distribution at steady state in mouse at 2 mg/kg, iv. It is filed as ADME, organism-based. More on the design: dose 2 mg/kg, route intravenous. The conditions noted are these: in vivo, read-out: Vdss.
Data set [11] addresses Mitogen-activated protein kinase 9 (Homo sapiens) (UniProt P45984). Nature of the data set: Inhibition of JNK2 (unknown origin) at 30 uM.
The test system of data set [12] is PBMC. The data set is described as follows: Antiinflammatory activity in human PBMC assessed as inhibition of LPS-induced IL-1beta release incubated for 15 mins prior to LPS-challenge measured after 24 hrs by HTRF assay. It is filed as functional, cell-based.
The target in data set [13] is MAP kinase-activated protein kinase 2 (Homo sapiens) (UniProt P49137). Nature of the data set: Inhibition of MAPKAPK2 (unknown origin) at 30 uM.
Chain of MAP kinase-activated protein kinase 2 (Homo sapiens) (P49137 whole entry, looked up): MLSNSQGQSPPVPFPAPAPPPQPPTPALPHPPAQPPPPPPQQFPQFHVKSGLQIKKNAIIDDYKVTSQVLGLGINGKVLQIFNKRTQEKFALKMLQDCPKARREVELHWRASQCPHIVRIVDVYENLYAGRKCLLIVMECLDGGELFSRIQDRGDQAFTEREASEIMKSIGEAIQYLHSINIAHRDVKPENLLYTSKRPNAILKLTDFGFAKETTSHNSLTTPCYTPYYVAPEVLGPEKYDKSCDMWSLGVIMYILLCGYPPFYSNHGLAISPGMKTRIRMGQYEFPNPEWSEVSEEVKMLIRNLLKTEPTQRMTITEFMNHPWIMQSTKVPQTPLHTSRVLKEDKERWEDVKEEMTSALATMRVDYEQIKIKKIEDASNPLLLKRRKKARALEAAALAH
A short description of data set [14]: Tmax in mouse at 4 mg/kg, po. It is filed as ADME, organism-based. Further details: dose 4 mg/kg, route oral. The settings on record: in vivo.
Data set [15] relates to Mus musculus. The data set is described as follows: Antiinflammatory activity in po dosed mouse assessed as inhibition of LPS-induced IL-6 production administered 1 hr prior to LPS challenge measured after 1 hr. It is filed as functional, organism-based.
Data set [16] concerns the target Dual specificity mitogen-activated protein kinase kinase 6 (Homo sapiens) (UniProt P52564). Nature of the data set: Inhibition of MKK6 (unknown origin) at 30 uM.
Data set [17] addresses Mitogen-activated protein kinase 1 (Homo sapiens) (UniProt P28482). Nature of the data set: Inhibition of ERK2 (unknown origin) at 30 uM.
Data set [18] concerns the target Interleukin-1 receptor-associated kinase 4 (Homo sapiens) (UniProt Q9NWZ3). Nature of the data set: Inhibition of IRAK4 (unknown origin) at 30 uM.
Data set [19] addresses Prostaglandin G/H synthase 1 (Homo sapiens) (UniProt P23219). Nature of the data set: Inhibition of COX1 (unknown origin) up to 25 uM.
The target in data set [20] is Mitogen-activated protein kinase 14 (Homo sapiens) (UniProt Q16539). Nature of the data set: Inhibition of p38alpha (unknown origin) at 30 uM.
Chain of Mitogen-activated protein kinase 14 (Homo sapiens) (Q16539 whole entry): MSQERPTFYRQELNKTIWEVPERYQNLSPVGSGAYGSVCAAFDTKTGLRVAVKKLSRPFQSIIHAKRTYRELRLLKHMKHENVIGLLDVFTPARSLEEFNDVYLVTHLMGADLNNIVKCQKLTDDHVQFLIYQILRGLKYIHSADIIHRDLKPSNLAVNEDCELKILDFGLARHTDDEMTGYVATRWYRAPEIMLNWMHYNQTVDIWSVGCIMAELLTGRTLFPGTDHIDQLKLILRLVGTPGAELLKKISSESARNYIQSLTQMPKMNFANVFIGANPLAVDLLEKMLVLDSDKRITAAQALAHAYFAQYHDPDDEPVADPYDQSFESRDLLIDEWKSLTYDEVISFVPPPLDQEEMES
For data set [21], the target named is Mitogen-activated protein kinase 10 (Homo sapiens) (UniProt P53779). The data set is described as follows: Inhibition of JNK3 (unknown origin) at 30 uM.
Chain of Mitogen-activated protein kinase 10 (Homo sapiens) (P53779 whole entry): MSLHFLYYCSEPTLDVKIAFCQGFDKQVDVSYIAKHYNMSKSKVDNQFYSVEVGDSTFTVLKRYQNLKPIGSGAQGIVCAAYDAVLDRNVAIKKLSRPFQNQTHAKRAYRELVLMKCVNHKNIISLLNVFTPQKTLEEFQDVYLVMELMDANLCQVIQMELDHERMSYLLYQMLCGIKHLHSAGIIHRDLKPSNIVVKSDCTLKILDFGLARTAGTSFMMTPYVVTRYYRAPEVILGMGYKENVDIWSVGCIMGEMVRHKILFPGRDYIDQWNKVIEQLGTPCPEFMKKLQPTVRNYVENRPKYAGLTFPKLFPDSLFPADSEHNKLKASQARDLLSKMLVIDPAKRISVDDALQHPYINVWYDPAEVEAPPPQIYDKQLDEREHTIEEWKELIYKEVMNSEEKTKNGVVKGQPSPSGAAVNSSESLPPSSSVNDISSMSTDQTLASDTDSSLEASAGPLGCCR

Calls of active or inactive are those of the source. The calls are words filed in the database; no cut-off is given here.

Chain of Dual specificity mitogen-activated protein kinase kinase 6 (Homo sapiens) (P52564 whole entry): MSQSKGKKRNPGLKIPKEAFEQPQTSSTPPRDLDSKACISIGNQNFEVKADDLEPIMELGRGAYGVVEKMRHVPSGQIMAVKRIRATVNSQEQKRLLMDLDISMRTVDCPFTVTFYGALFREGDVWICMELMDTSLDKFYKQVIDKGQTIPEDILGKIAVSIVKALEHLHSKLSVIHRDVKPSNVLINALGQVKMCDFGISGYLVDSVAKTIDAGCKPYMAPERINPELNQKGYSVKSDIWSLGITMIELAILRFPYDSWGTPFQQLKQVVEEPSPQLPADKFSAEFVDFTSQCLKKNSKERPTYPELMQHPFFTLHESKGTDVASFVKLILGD
Chain of Interleukin-1 receptor-associated kinase 4 (Homo sapiens) (Q9NWZ3 whole entry): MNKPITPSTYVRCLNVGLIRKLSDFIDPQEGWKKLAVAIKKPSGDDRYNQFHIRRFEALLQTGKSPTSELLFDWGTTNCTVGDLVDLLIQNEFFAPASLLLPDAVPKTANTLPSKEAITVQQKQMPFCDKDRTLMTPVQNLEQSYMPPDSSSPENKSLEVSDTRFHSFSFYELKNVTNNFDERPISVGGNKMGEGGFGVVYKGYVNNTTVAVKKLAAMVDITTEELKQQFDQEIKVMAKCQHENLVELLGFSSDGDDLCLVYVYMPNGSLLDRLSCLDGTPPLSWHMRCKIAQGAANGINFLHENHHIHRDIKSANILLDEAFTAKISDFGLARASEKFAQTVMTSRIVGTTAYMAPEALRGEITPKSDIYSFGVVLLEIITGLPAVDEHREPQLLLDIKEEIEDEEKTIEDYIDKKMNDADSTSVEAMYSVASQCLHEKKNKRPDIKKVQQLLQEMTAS
Chain of Mitogen-activated protein kinase 12 (Homo sapiens) (P53778 whole entry): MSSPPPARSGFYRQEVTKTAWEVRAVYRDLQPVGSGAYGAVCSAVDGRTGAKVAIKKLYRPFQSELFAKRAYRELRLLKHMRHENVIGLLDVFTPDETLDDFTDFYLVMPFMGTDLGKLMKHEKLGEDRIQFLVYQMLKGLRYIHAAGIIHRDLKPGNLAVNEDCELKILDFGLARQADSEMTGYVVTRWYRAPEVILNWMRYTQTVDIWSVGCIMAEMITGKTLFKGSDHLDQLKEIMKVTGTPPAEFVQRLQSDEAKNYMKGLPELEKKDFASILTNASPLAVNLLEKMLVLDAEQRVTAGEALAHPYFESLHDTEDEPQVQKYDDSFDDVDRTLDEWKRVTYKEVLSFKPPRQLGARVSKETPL
Chain of Prostaglandin G/H synthase 1 (Homo sapiens) (P23219 whole entry): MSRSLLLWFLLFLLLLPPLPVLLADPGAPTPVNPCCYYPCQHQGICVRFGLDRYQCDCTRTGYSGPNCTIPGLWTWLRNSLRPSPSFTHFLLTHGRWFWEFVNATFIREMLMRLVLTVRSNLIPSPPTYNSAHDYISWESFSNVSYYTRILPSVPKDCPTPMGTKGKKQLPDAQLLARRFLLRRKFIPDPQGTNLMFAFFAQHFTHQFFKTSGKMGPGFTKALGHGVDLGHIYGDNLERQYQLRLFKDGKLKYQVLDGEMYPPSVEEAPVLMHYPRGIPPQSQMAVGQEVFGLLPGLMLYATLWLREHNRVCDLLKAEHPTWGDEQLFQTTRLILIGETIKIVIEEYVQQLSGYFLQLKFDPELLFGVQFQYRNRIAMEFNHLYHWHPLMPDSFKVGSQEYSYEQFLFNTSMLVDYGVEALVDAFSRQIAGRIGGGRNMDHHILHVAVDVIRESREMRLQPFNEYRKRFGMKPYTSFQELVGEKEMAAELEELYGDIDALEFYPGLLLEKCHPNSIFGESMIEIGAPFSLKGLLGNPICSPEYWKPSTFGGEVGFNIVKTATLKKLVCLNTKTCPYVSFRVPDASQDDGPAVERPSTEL
Chain of Mitogen-activated protein kinase 9 (Homo sapiens) (P45984 whole entry, looked up): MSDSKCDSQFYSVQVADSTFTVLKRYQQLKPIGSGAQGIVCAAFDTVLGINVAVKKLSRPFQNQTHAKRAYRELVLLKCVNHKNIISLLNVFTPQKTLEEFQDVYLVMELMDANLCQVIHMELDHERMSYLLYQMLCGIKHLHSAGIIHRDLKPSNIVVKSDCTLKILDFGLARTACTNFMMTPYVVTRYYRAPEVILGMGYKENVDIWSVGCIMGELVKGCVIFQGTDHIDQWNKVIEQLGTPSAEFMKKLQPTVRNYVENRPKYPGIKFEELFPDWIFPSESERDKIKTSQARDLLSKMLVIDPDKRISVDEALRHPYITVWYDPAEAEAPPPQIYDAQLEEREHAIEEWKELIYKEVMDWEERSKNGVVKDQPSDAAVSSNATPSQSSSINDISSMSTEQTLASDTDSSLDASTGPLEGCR
Chain of Mitogen-activated protein kinase 1 (Homo sapiens) (P28482 whole entry): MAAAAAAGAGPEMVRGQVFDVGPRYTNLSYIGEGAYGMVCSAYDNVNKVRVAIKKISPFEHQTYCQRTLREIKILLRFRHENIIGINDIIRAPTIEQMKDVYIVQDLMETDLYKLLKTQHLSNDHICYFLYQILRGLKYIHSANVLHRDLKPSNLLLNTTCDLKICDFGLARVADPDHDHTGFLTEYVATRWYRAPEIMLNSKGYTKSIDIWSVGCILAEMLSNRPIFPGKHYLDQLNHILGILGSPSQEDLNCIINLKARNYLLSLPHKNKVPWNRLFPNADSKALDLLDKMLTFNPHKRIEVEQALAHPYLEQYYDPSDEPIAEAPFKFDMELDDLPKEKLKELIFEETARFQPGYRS

The clearance is the volume of plasma or blood freed of the substance per unit of time. Read a high clearance as efficient removal. Broadly, the inhibition in vivo is the drop in the measured response relative to a control, in per cent. The IC50 is the concentration that gives 50% inhibition. As a reminder, the AUC(0-t) is the area under the concentration-time curve up to a stated or last time point. As a reminder, the Tmax is the time at which the peak concentration occurs. In data set [1], `O=C(Nc1ccc2c(c1)B(O)OC2)c1c(C(F)(F)F)ccc(Cl)c1F` showed a clearance of 0.683 mL/min/kg. Besides, the inhibition in vivo at 30 mg/kg in data set [2] came to 95%. Moreover, the inhibition result in data set [3], in data set [4], in [11], in data set [13], in [16] and in [17] was “inactive” throughout. In addition, the inhibition entry in data set [18], in data set [19], in [20] and in [21] was “inactive” throughout. Besides, the IC50 in data set [5] worked out at 500 nM; in data set [12], 190 nM. The Activity result in data set [6] is given as “Non-toxic”. For the same compound, the results for the half-life in data set [7] and in data set [8] were 7.85 h and 13.3 h, respectively. This compound had an AUC(0-t) at 24 h in data set [9] of 43400 ng·h/mL. For the same compound, in data set [10], the Vd is 0.41 L/kg. Moreover, the Tmax in data set [14] came to 4 h. Moreover, the inhibition result in data set [15] was “Dose-dependent effect”.

The record behind these values is ChEMBL document CHEMBL2440005, “Discovery and structure-activity relationships of 6-(benzoylamino)benzoxaboroles as orally active anti-inflammatory agents” (Bioorg Med Chem Lett, 2013).
